Reference: US12595266B2, “Pesticidally active heterocyclic derivatives with sulfur containing substituents” (SYNGENTA CROP PROTECTION AG, priority 2020, dated 2026)

Tests used:
Format in all cases: in vivo
[1] = tested on: Carpocapsa (Cydia) Pomonella (Codling Moth); test: Activity against Carpocapsa (Cydia) pomonella (codling moth), larvicide, feeding/contact; conditions: 336 h, application rate of 12.5 ppm, paraffin-coated diet cubes sprayed, L1 larvae, 14 days after infestation, 26-27° C.
Method: Example B10: Activity Against Carpocapsa (Cydia) Pomonella (Codling Moth) Larvicide, Feeding/Contact
Diet cubes coated with paraffin were sprayed with diluted test solutions in an application chamber. After drying off the treated cubes (10 replicates) were infested with 1 L1 larvae. Samples were incubated at 26-27° C. and checked 14 days after infestation for mortality and growth inhibition.

[2] = tested on: Diabrotica balteata (Corn Root Worm); test: Activity against Diabrotica balteata (corn root worm); conditions: 96 h, application rate of 200 ppm, maize sprouts sprayed, L2 larvae, 4 days after infestation, read-out: effect in at least one of the two categories (mortality or growth inhibition)
Method: Example B3: Activity Against Diabrotica balteata (Corn Root Worm)
Maize sprouts placed onto an agar layer in 24-well microtiter plates were treated with aqueous test solutions prepared from 10′000 ppm DMSO stock solutions by spraying. After drying, the plates were infested with L2 larvae (6 to 10 per well). The samples were assessed for mortality and growth inhibition in comparison to untreated samples 4 days after infestation.

[3] = tested on: Plutella xylostella (Diamond Back Moth); test: Activity against Plutella xylostella (diamond back moth); conditions: 192 h, application rate of 200 ppm, artificial diet, Plutella eggs, 8 days after infestation, read-out: effect in at least one of the two categories (mortality or growth inhibition)
Method: Example B7: Activity Against Plutella xylostella (Diamond Back Moth)
24-well microtiter plates with artificial diet were treated with aqueous test solutions prepared from 10′000 ppm DMSO stock solutions by pipetting. After drying, Plutella eggs were pipetted through a plastic stencil onto a gel blotting paper and the plate was closed with it. The samples were assessed for mortality and growth inhibition in comparison to untreated samples 8 days after infestation.

[4] = tested on: Myzus persicae (Green Peach Aphid); test: Activity against Myzus persicae (green peach aphid), feeding/contact activity; conditions: foliar, 144 h, application rate of 200 ppm, sunflower leaf discs sprayed, aphid population of mixed ages, 6 days after infestation
Method: Example B6: Activity Against Myzus persicae (Green Peach Aphid) Feeding/Contact Activity
Sunflower leaf discs were placed onto agar in a 24-well microtiter plate and sprayed with aqueous test solutions prepared from 10′000 ppm DMSO stock solutions. After drying, the leaf discs were infested with an aphid population of mixed ages. The samples were assessed for mortality 6 days after infestation.

[5] = tested on: Euschistus heros (Neotropical Brown Stink Bug); test: Activity against Euschistus heros (neotropical brown stink bug); conditions: 120 h, application rate of 200 ppm, soybean leaves sprayed, N2 nymphs, 5 days after infestation, read-out: effect in at least one of the two categories (mortality or growth inhibition)
Method: Example B4: Activity Against Euschistus heros (Neotropical Brown Stink Bug)
Soybean leaves on agar in 24-well microtiter plates were sprayed with aqueous test solutions prepared from 10′000 ppm DMSO stock solutions. After drying the leaves were infested with N2 nymphs. The samples were assessed for mortality and growth inhibition in comparison to untreated samples 5 days after infestation.

[6] = tested on: Chilo suppressalis (Striped Rice Stemborer); test: Activity against Chilo suppressalis (striped rice stemborer); conditions: 144 h, application rate of 200 ppm, artificial diet, L2 larvae, 6 days after infestation, read-out: control (at least one of mortality, anti-feedant effect, growth inhibition)
Method: Example B2: Activity Against Chilo suppressalis (Striped Rice Stemborer)
24-well microtiter plates with artificial diet were treated with aqueous test solutions prepared from 10′000 ppm DMSO stock solutions by pipetting. After drying, the plates were infested with L2 larvae (6-8 per well). The samples were assessed for mortality, anti-feeding effect, and growth inhibition in comparison to untreated samples 6 days after infestation. Control of Chilo suppressalis by a test sample is given when at least one of the categories mortality, anti-feedant effect, and growth inhibition is higher than the untreated sample.

[7] = tested on: Frankliniella occidentalis (Western Flower Thrips); test: Activity against Frankliniella occidentalis (western flower thrips), feeding/contact activity; conditions: foliar, 168 h, application rate of 200 ppm, sunflower leaf discs sprayed, population of mixed ages, 7 days after infestation
Method: Example B5: Activity Against Frankliniella occidentalis (Western Flower Thrips) Feeding/Contact Activity
Sunflower leaf discs were placed on agar in 24-well microtiter plates and sprayed with aqueous test solutions prepared from […] stock solutions. After drying the leaf discs were infested with a Frankliniella population of mixed ages. The samples were assessed for mortality 7 days after infestation.

[8] = tested on: Spodoptera littoralis (Egyptian Cotton Leaf Worm); test: Activity against Spodoptera littoralis (Egyptian cotton leaf worm); conditions: foliar, 72 h, application rate of 200 ppm, cotton leaf discs sprayed, L1 larvae, 3 days after infestation, read-out: control (at least one of mortality, anti-feedant effect, growth inhibition)
Method: Example B8: Activity Against Spodoptera littoralis (Egyptian Cotton Leaf Worm)
Cotton leaf discs were placed onto agar in 24-well microtiter plates and sprayed with aqueous test solutions prepared from 10′000 ppm DMSO stock solutions. After drying the leaf discs were infested with five L1 larvae. The samples were assessed for mortality, anti-feeding effect, and growth inhibition in comparison to untreated samples 3 days after infestation. Control of Spodoptera littoralis by a test sample is given when at least one of the categories mortality, anti-feedant effect, and growth inhibition is higher than the untreated sample.

[9] = tested on: Bemisia tabaci (Cotton White Fly); test: Activity against Bemisia tabaci (cotton white fly), feeding/contact activity; conditions: foliar, 144 h, application rate of 200 ppm, cotton leaf discs sprayed, adult white flies, 6 days after incubation
Method: Example B1: Activity Against Bemisia tabaci (Cotton White Fly) Feeding/Contact Activity
Cotton leaf discs were placed on agar in 24-well microtiter plates and sprayed with aqueous test solutions prepared from 10′000 ppm DMSO stock solutions. After drying the leaf discs were infested with adult white flies. The samples were checked for mortality 6 days after incubation.

CCS(=O)(=O)c1c(N2Cc3cc4c(cc3C2=O)OC(F)(F)O4)nc(-c2ccc(C3(C#N)CC3)cc2)n1C [Compound P2, 1-[4-[4-(2,2-difluoro-7-oxo-5H-[1,3]dioxolo[4,5-f]isoindol-6-yl)-5-ethylsulfonyl-1-methyl-imidazol-2-yl]phenyl]cyclopropanecarbonitrile]
≥ 80%: mortality at 12.5 ppm [1] | percent effect (mortality or growth inhibition) at 200 ppm [2] | percent effect (mortality or growth inhibition) at 200 ppm [3] | mortality at 200 ppm [4] | percent effect (mortality or growth inhibition) at 200 ppm [5] | percent control (mortality, anti-feedant effect or growth inhibition) at 200 ppm [6] | mortality at 200 ppm [7] | percent control (mortality, anti-feedant effect or growth inhibition) at 200 ppm [8]

CCS(=O)(=O)c1cc(C2(C#N)CC2)cnc1N1Cc2cc3c(cc2C1=O)OC(F)(F)O3 [Compound P1, 1-[6-(2,2-difluoro-7-oxo-5H-[1,3]dioxolo[4,5-f]isoindol-6-yl)-5-ethylsulfonyl-3-pyridyl]cyclopropanecarbonitrile]
≥ 80%: mortality at 12.5 ppm [1] | percent effect (mortality or growth inhibition) at 200 ppm [2] | percent effect (mortality or growth inhibition) at 200 ppm [3] | mortality at 200 ppm [4] | mortality at 200 ppm [9] | percent effect (mortality or growth inhibition) at 200 ppm [5] | percent control (mortality, anti-feedant effect or growth inhibition) at 200 ppm [6] | percent control (mortality, anti-feedant effect or growth inhibition) at 200 ppm [8]

CCS(=O)(=O)c1cc(OC(C)(C)C#N)cnc1N1Cc2cc3c(cc2C1=O)OC(F)(F)O3 [Compound P25, 2-[[6-(2,2-difluoro-7-oxo-5H-[1,3]dioxolo[4,5-f]isoindol-6-yl)-5-ethylsulfonyl-3-pyridyl]oxy]-2-methyl-propanenitrile]
≥ 80%: mortality at 12.5 ppm [1] | percent effect (mortality or growth inhibition) at 200 ppm [2] | percent effect (mortality or growth inhibition) at 200 ppm [3] | mortality at 200 ppm [4] | mortality at 200 ppm [9] | percent effect (mortality or growth inhibition) at 200 ppm [5] | percent control (mortality, anti-feedant effect or growth inhibition) at 200 ppm [6] | percent control (mortality, anti-feedant effect or growth inhibition) at 200 ppm [8]
